In US12338262B2 (Forward Therapeutics, Inc., priority 2022, dated 2025):

Biological target: TNF-α (Homo sapiens, UniProt P01375)
Assay: TNF-α Induced HEK Blue Cellular Assay
Format: cell-based
Settings: HEK Blue TNFα reporter cells, TNF-α 100 pg/ml, 24 hrs at 37° C., secreted alkaline phosphatase (QUANTI-Blue, 620 nm)
Description: TNF-α Induced HEK Bluet Cellular Assay
Test articles were diluted in DMSO and serially diluted into 384 well assay plate (Corning 3765), at final concentrations ranging from […] to 0.5 nM. HEK Blue™ TNFα reporter cells were added at a final density of 10,000 cell per well in assay media [DMEM (Gibco, cat #21063-029), 10% fetal bovine serum (ExcelBio, cat #FND500), 1% Penicillin-Streptomycin (Solarbio, cat #P1400-100]. TNF-α (R&D 210-TA-020/CF) was then added to the assay plate at a final concentration of 100 pg/ml. This plate was then incubated for 24 hrs at 37° C. and 5% CO2. Secreted alkaline phosphatase expression was then measured using QUANTI-Blue™ (Invivogen), according to manufacturer instructions and read on an Envision microplate reader at 620 nm.
Inhibition data for test compound over a range of concentration was plotted as percentage inhibition of the test compound (100%=maximum inhibition). IC50 values were determined after correcting for background [(sample read-mean of low control)/(mean of high control-mean of low control)] where by the low control is DMSO without stimulation and high control is DMSO with stimulation. The IC50 is defined as the concentration of test compound which produces 50% inhibition and was quantified using the 4 parameter logistic equation to fit the data.

Chain of TNF-α (P01375 77-233 limits assumed): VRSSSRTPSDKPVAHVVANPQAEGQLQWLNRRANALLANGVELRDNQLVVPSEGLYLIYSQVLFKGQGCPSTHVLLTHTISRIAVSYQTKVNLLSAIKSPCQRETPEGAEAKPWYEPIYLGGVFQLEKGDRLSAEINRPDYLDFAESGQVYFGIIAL

IC50	Structure (SMILES)
≤ 100 nM	Cc1nc2cc(F)c(-c3ccc(P(C)(C)=O)cc3)nc2c(N[C@H](C)c2cc(C#N)ccc2F)c1Cl [Example 3, 3-[(1R)-1-({3-chloro-6-[4-(dimethylphosphoryl)phenyl]-7-fluoro-2-methyl-1,5-naphthyridin-4-yl}amino)ethyl]-4-fluorobenzonitrile]
≤ 100 nM	Cc1nc2cc(F)c(-c3ccc(P(C)(C)=O)nc3)cc2c(N[C@H](C)c2cc(C#N)ccc2F)c1Cl [Example 10, 3-[(1R)-1-({3-chloro-6-[6-(dimethylphosphoryl)pyridin-3-yl]-7-fluoro-2-methylquinolin-4-yl}amino)ethyl]-4-fluorobenzonitrile]
≤ 100 nM	Cc1nc2cc(F)c(-c3ccc(P(C)(C)=O)nc3)nc2c(N[C@@H](C)c2cccc(F)c2F)c1Cl [Example 45, 3-chloro-N-[(1S)-1-(2,3-difluorophenyl)ethyl]-6-[6-(dimethylphosphoryl)pyridin-3-yl]-7-fluoro-2-methyl-1,5-naphthyridin-4-amine]
≤ 100 nM	Cc1nc2cc(F)c(-c3ccc(P(C)(C)=O)nc3)nc2c(N[C@@H](c2ccccc2F)C(F)F)c1Cl (single isomer, unassigned) [Example 25]
≤ 100 nM	Cc1nc2cc(F)c(-c3ccc(P(C)(C)=O)nc3)nc2c(N[C@H](C)c2cc(C(N)=O)ccc2F)c1Cl [Example 13, 3-[(1R)-1-({3-chloro-6-[6-(dimethylphosphoryl)pyridin-3-yl]-7-fluoro-2-methyl-1,5-naphthyridin-4-yl}amino)ethyl]-4-fluorobenzamide]
≤ 100 nM	CC[C@@H](Nc1c(Cl)c(C)nc2cc(F)c(-c3ccc(P(C)(C)=O)nc3)nc12)c1cccc(F)c1F [Example 95, (R)-(5-(7-chloro-8-((1-(2,3-difluorophenyl)propyl)amino)-3-fluoro-6-methyl-1,5-naphthyridin-2-yl)pyridin-2-yl)dimethylphosphine oxide]
≤ 1000 nM	C#Cc1ccc(F)c([C@@H](C)Nc2c(Cl)c(C)nc3cc(F)c(-c4ccc(P(C)(C)=O)nc4)nc23)c1 [Example 98, 3-chloro-6-[6-(dimethylphosphoryl)pyridin-3-yl]-N-[(1R)-1-(5-ethynyl-2-fluorophenyl)ethyl]-7-fluoro-2-methyl-1,5-naphthyridin-4-amine]
≤ 100 nM	CC[C@H](Nc1c(Cl)c(C)nc2cc(F)c(-c3ccc(P(C)(C)=O)nc3)nc12)c1ccccc1F [Example 23, 3-chloro-6-[6-(dimethylphosphoryl)pyridin-3-yl]-7-fluoro-N-[(1S)-1-(2-fluorophenyl)propyl]-2-methyl-1,5-naphthyridin-4-amine]
≤ 1000 nM	Cc1nc2cc(F)c(-c3ccc(P(C)(C)=O)nc3)nc2c(N[C@H](C)c2cc(F)cc(Cl)c2)c1Cl [Example 130, 3-chloro-N-[(1R)-1-(3-chloro-5-fluorophenyl)ethyl]-6-[6-(dimethylphosphoryl)pyridin-3-yl]-7-fluoro-2-methyl-1,5-naphthyridin-4-amine]
10000 to 30000 nM	Cc1nc2cc(F)c(-c3ccc(P(=O)(O)O)nc3)nc2c(N[C@H](C)c2cc(C#N)ccc2F)c1Cl [Example 37, diammonium 5-(7-chloro-8-{[(1R)-1-(5-cyano-2-fluorophenyl)ethyl]amino}-3-fluoro-6-methyl-1,5-naphthyridin-2-yl)pyridin-2-ylphosphonate]
≤ 100 nM	Cc1nc2cc(F)c(-c3ccc(P(C)(C)=O)nc3)nc2c(N[C@@H](C)c2nc(C#N)ccc2F)c1Cl [Example 122, 6-[(1S)-1-({3-chloro-6-[6-(dimethylphosphoryl)pyridin-3-yl]-7-fluoro-2-methyl-1,5-naphthyridin-4-yl}amino)ethyl]-5-fluoropyridine-2-carbonitrile]
≤ 100 nM	CC[P@](C)(=O)c1ccc(-c2nc3c(N[C@H](C)c4cc(C#N)ccc4F)c(Cl)c(C)nc3cc2F)cn1 (single isomer, unassigned) [Example 58]
≤ 100 nM	CC[P@@](C)(=O)c1ccc(-c2nc3c(N[C@H](C)c4cc(C#N)ccc4F)c(Cl)c(C)nc3cc2F)cn1 [Example 57]
≤ 100 nM	Cc1nc2cc(F)c(-c3cnc(OCP(C)(C)=O)nc3)nc2c(N[C@H](C)c2cc(C#N)ccc2F)c1Cl [Example 121, 3-[(1R)-1-[(3-chloro-6-{2-[(dimethylphosphoryl)methoxy]pyrimidin-5-yl}-7-fluoro-2-methyl-1,5-naphthyridin-4-yl)amino]ethyl]-4-fluorobenzonitrile]
≤ 1000 nM	Cc1nc2cc(F)c(-c3ccc(P(C)(C)=O)nc3)nc2c(N[C@H](C)c2nc(C#N)ccc2F)c1Cl [Example 123, 6-[(1R)-1-({3-chloro-6-[6-(dimethylphosphoryl)pyridin-3-yl]-7-fluoro-2-methyl-1,5-naphthyridin-4-yl}amino)ethyl]-5-fluoropyridine-2-carbonitrile]
≤ 100 nM	C[C@@H](Nc1c(Cl)cnc2cc(F)c(-c3ccc(P(C)(C)=O)nc3)nc12)c1cc(C#N)ccc1F [Example 15, 3-[(1R)-1-({3-chloro-6-[6-(dimethylphosphoryl)pyridin-3-yl]-7-fluoro-1,5-naphthyridin-4-yl}amino)ethyl]-4-fluorobenzonitrile]

Continued, molecule first:

Structure (SMILES)	IC50
CC[C@H](Nc1c(Cl)c(C)nc2cc(F)c(-c3cnc(P(C)(C)=O)nc3)nc12)c1ccccc1F [Example 17, 3-chloro-6-[2-(dimethylphosphoryl)pyrimidin-5-yl]-7-fluoro-N-[(1S)-1-(2-fluorophenyl)propyl]-2-methyl-1,5-naphthyridin-4-amine]	≤ 1000 nM
Cc1nc2cc(F)c(-c3ccc(P(C)(C)=O)nc3)nc2c(N[C@H](c2ccccc2)C2CC2)c1Cl [Example 140, 3-chloro-N—[(S)-cyclopropyl(phenyl)methyl]-6-[6-(dimethylphosphoryl)pyridin-3-yl]-7-fluoro-2-methyl-1,5-naphthyridin-4-amine]	≤ 1000 nM
Cc1nc2cc(F)c(-c3ccc(P4(=O)CCCC4)nc3)nc2c(N[C@H](C)c2cc(C#N)ccc2F)c1Cl [Example 27, 3-[(1R)-1-({3-chloro-7-fluoro-2-methyl-6-[6-(1-oxo-1lambda5-phospholan-1-yl)pyridin-3-yl]-1,5-naphthyridin-4-yl}amino)ethyl]-4-fluorobenzonitrile]	≤ 100 nM
CC[C@@H](Nc1c(Cl)c(C)nc2cc(F)c(-c3cnc(P(C)(C)=O)nc3)nc12)c1cc(C#N)ccc1F [Example 9, 3-[(1R)-1-({3-chloro-6-[2-(dimethylphosphoryl)pyrimidin-5-yl]-7-fluoro-2-methyl-1,5-naphthyridin-4-yl}amino)propyl]-4-fluorobenzonitrile]	≤ 100 nM
Cc1nc2cc(F)c(-c3cnc(P(C)(C)=O)nc3)cc2c(N[C@H](C)c2cc(C#N)ccc2F)c1Cl [Example 8, 3-[(1R)-1-({3-chloro-6-[2-(dimethylphosphoryl)pyrimidin-5-yl]-7-fluoro-2-methylquinolin-4-yl}amino)ethyl]-4-fluorobenzonitrile]	≤ 100 nM
Cc1nc2cc(F)c(-c3ccc(P4(=O)CCOCC4)nc3)cc2c(N[C@H](C)c2cccc(F)c2F)c1Cl [Example 103, 4-[5-(3-chloro-4-{[(1R)-1-(2,3-difluorophenyl)ethyl]amino}-7-fluoro-2-methylquinolin-6-yl)pyridin-2-yl]-1,4lambda5-oxaphosphinan-4-one]	10000 to 30000 nM
Cc1nc2cc(F)c(-c3ccc(P(C)(C)=O)nc3)nc2c(N[C@H](C)c2cccc(F)c2F)c1C1CC1 [Example 134, 3-cyclopropyl-N-[(1R)-1-(2,3-difluorophenyl)ethyl]-6-[6-(dimethylphosphoryl)pyridin-3-yl]-7-fluoro-2-methyl-1,5-naphthyridin-4-amine]	1000 to 10000 nM
CC[C@@H](Nc1c(Cl)c(C)nc2cc(F)c(-c3ccc(P(C)(C)=O)nc3)nc12)c1cccc(C#N)c1 [Example 48, 3-[(1R)-1-({3-chloro-6-[6-(dimethylphosphoryl)pyridin-3-yl]-7-fluoro-2-methyl-1,5-naphthyridin-4-yl}amino)propyl]benzonitrile]	≤ 100 nM
Cc1nc2cc(F)c(-c3ccc(OCP(C)(C)=O)nc3)cc2c(N[C@H](C)c2ccccc2F)c1Cl [Example 105, 3-chloro-6-{6-[(dimethylphosphoryl)methoxy]pyridin-3-yl}-7-fluoro-N-[(1R)-1-(2-fluorophenyl)ethyl]-2-methylquinolin-4-amine]	≤ 1000 nM
Cc1nc2cc(F)c(-c3cnc(P(C)(C)=O)c(F)c3)cc2c(N[C@H](C)c2cccc(F)c2F)c1Cl [Example 135, 3-chloro-N-[(1R)-1-(2,3-difluorophenyl)ethyl]-6-[6-(dimethylphosphoryl)-5-fluoropyridin-3-yl]-7-fluoro-2-methylquinolin-4-amine]	≤ 100 nM
CC[C@@H](Nc1c(Cl)c(C)nc2cc(F)c(-c3ccc(OCP(C)(C)=O)nc3)nc12)c1ncccc1F [Example 108, 3-chloro-6-{6-[(dimethylphosphoryl)methoxy]pyridin-3-yl}-7-fluoro-N-[(1R)-1-(3-fluoropyridin-2-yl)propyl]-2-methyl-1,5-naphthyridin-4-amine]	≤ 1000 nM
CC[C@@H](Nc1c(Cl)c(C)nc2cc(F)c(-c3cnc(P(C)(C)=O)nc3)nc12)c1cccc(C#N)c1 [Example 47, 3-[(1R)-1-({3-chloro-6-[2-(dimethylphosphoryl)pyrimidin-5-yl]-7-fluoro-2-methyl-1,5-naphthyridin-4-yl}amino)propyl]benzonitrile]	≤ 1000 nM
